In assay [1] the target is lactase derived from Escherichia coli (β-galactosidase; enzyme number 3. 2. 1. 23) (Escherichia coli, UniProt P00722). The settings on record: E. coli lactase, cited from earlier work.
Assay [2] addresses T1, immobilized lactase: Aspergillus oryzae lactase covalently attached through glutaraldehyde on macroporous phenol-formaldehyde based anion-exchange resin (Aspergillus oryzae, UniProt Q2UCU3).
T1 construct: obtained from a strain belonging to Aspergillus oryzae as extracellular enzyme; host or cells: Aspergillus oryzae strain (natural producer, secreted)
Nature of the assay: Km and Ki of the immobilized lactase, general properties. The settings on record: pH 6.65, 30°C, substrate; lactose; immobilized enzyme; read-out: Inhibition constant by galactose Ki. It is filed as biochemical. As for the experimental part: The enzymatical properties of the present immobilized lactase are given below.
Km = 0.2 ± 0.1 mole/ℓ (both pH 4.5, 30°C, substrate; lactose, and pH 6.65, 30°C, substrate; lactose)
Ki = (8 ± 5) x […] mole/ℓ (pH 4.5, 30°C, substrate; lactose) and Ki = (3 ± 2) x 10^-2 mole/ℓ (pH 6.65, 30°C, substrate; lactose).
Both values of Km and Ki for the immobilized enzyme tend to increase with increase in the concentration of the glutaraldehyde solution used for the treatment, and moreover, in the measurement thereof, it is considerably difficult to obtain the results with good reproducibility. Therefore, the above value given for Km and Ki should be understood taking this respect into consideration."

The target in assay [3] is T2, lactase originated from Aspergillus oryzae (extracellular enzyme, unimmobilized) (Aspergillus oryzae, UniProt Q2UCU3).
T2 construct: obtained from a strain belonging to Aspergillus oryzae as extracellular enzyme; host or cells: Aspergillus oryzae strain (natural producer, secreted)
Nature of the assay: Km and Ki of free (unimmobilized) Aspergillus oryzae lactase. The assay is classed as biochemical. The note with it: for Ki: substrate, lactose, free enzyme, read-out: Inhibition constant Ki by galactose. Here is the method: The lactase used in the present invention is obtained from a strain belonging to Aspergillus oryzae as extracellular enzyme, and has the following characteristics:
Km = 0.10 ± 0.05 mole/ℓ (pH 4.5, 30°C, substrate; lactose), and Km = 0.3 ± 0.15 mole/ℓ (pH 6.65, 30°C, substrate; lactose).
Ki = (6 ± 3) x 10^-3 mole/ℓ (pH 4.5, 30°C, substrate; lactose), and Ki = (4 ± 3) x 10^-3 mole/ℓ (pH 6.65, 30°C, substrate; lactose).
In the present specification, 1 ILU is defined as the amount of lactase which produces […] per minute of glucose at pH 4.5 at 30°C when a 13.3 w/v % of lactose solution is used as the substrate. The quantity of glucose thus prepared is defined by using glucose oxidase-peroxidase- dye system. When the measurement of the activity (unit) is carried out at a different pH or temperature, the pH or the temperature will specifically be given in each case.

Like-named read-outs stand apart in the source and are kept apart here.

T2 sequence (Q2UCU3 19-1005): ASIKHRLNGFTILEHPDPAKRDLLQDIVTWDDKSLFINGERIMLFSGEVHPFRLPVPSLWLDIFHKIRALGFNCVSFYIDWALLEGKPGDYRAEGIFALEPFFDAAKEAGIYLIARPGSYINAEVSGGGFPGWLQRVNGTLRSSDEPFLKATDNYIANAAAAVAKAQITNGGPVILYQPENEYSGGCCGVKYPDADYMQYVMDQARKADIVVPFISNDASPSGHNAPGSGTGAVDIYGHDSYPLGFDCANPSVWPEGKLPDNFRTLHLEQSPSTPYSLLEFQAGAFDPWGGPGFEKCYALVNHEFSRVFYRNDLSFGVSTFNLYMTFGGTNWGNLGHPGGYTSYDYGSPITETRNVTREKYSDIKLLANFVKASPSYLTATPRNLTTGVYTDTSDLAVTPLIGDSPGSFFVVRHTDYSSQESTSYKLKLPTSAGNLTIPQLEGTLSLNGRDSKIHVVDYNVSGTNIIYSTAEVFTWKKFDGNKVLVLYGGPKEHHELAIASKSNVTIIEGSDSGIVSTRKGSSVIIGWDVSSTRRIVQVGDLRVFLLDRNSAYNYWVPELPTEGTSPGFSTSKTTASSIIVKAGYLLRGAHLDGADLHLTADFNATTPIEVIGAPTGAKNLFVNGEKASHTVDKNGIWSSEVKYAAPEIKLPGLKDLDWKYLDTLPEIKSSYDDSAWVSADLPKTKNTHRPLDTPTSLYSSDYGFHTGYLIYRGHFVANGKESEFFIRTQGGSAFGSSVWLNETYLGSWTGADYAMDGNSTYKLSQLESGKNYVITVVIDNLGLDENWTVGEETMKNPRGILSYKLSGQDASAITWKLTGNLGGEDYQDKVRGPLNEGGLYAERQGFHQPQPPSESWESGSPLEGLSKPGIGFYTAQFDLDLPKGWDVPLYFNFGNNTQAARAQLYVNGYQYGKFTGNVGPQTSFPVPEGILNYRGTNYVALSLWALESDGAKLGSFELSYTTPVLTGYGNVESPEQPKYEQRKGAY
lactase derived from Escherichia coli (β-galactosidase; enzyme number 3. 2. 1. 23), sequence (P00722 2-1024): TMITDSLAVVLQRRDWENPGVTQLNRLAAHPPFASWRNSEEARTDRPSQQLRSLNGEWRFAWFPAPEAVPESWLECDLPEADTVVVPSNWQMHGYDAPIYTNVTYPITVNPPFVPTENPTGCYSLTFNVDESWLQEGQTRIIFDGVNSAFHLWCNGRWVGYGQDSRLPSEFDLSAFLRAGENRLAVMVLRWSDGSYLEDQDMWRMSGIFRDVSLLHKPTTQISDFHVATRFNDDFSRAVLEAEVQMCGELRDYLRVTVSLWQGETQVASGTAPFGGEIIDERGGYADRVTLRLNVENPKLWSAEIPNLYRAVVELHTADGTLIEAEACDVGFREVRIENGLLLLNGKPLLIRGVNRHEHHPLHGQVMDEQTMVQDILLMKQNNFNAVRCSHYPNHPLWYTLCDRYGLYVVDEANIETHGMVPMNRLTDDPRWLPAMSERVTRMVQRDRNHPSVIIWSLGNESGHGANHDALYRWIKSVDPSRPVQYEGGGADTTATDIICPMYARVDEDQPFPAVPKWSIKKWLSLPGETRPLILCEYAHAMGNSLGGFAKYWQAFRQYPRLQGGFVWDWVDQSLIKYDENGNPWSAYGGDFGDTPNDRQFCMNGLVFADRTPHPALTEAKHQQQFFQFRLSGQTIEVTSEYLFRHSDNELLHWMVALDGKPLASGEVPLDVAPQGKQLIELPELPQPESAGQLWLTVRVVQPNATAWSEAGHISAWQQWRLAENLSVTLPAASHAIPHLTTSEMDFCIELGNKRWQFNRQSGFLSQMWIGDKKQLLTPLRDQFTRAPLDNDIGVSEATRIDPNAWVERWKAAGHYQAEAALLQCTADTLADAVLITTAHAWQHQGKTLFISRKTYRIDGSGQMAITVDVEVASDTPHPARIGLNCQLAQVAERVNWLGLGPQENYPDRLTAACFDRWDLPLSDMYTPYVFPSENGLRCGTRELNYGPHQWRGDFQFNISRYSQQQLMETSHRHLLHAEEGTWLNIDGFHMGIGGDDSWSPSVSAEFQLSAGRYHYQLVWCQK
T1 sequence (Q2UCU3 19-1005): as the sequence (Q2UCU3 19-1005) above

Consider `O=[N+]([O-])c1ccccc1O[C@@H]1O[C@H](CO)[C@H](O)[C@H](O)[C@H]1O` [ONPG, ortho-nitrophenyl-β-D-galactopyranoside, reference compound], for which the Km in assay [1] (read-out: Michaelis constant Km (substrate; ONPG)) was 0.95 mM.

Consider `OC[C@H]1OC(O)[C@H](O)[C@@H](O)[C@H]1O` (stereo partly drawn) [galactose], for which the Ki in assay [2] came out at 30 mM; in assay [3] (pH 4.5, 30°C), 6 mM; in assay [3] (pH 6.65, 30°C), 4 mM.

For `OC[C@H]1O[C@@H](O[C@H]2[C@H](O)[C@@H](O)C(O)O[C@@H]2CO)[C@H](O)[C@@H](O)[C@H]1O` (stereo partly drawn) [lactose], the Km is 7.5 mM in assay [1] (read-out: Michaelis constant Km (substrate; lactose)) and 100 mM in assay [3] (pH 4.5, 30°C, dry lactase powder used in Example 3 (Shinnihon Kagaku Kogyo, 80 ILU/mg)).
